Experimental data taken from patent US20060100168A1, “Method of treating cancer using adenosine and its analogs” (The Trustee of Boston University, priority 2002, published 2006).
Entries after “also recorded” stand apart in the source; their conditions may differ.

Experiments:
Format in all cases: cell-based, human
T47D cells = assay: Anchorage-dependent growth assay; settings: 100 μM, three days
[1] = system: ERE promoter activity (transcriptional activity of endogenous ERα); assay: Reporter gene assay pERE-Tk-Luc in MCF-7 cells; settings: MCF-7 transfected with pERE-Tk-Luc; 12 hours
Procedure: Transfections and Reporter Gene Assay: Transient transfection was performed using FuGene6 (Roche, Indianapolis, Ind.) transfection reagent according to manufacturer's protocol. Circular reporter plasmid pERE-Tk-Luc at 10 μg and 10 μg of pCMV-β-Gal (as a measure of efficiency of trasnfection) were transfected with 50 μl of FuGene6. Cells were split into 6 well plates 12 hours after transfection, and incubated overnight in fresh medium. […] Luciferase and β-galactosidase activities were measured as described before (43, 44).

pS2 mRNA = assay: Semi-quantitative RT-PCR of pS2 mRNA in MCF-7 cells; settings: 100 μM, observed after 8 to 12 hours
Procedure: Total RNA preparation and Reverse Transcription Polymerase Chain Reaction (RT-PCR): Total RNA from MCF-7 cells was prepared with Trizol (Invitrogen, Carlsbad, Calif.) as described before (41). For reverse transcription, 2 μg of RNA were used in a […] with random primers and M-MLV reverse transcriptase (Invitrogen, Carlsbad, Calif.), following the manufacturer's protocol. To control for possible contamination from genomic DNA in subsequent PCR reactions, control reverse transcription reactions were carried out under identical conditions, only without reverse transcriptase. After reverse transcription, 5% of the product was used in each PCR reaction. For the experiments analyzing A3 adenosine receptor (A3AR) expression, 27 cycles were used in the PCR reactions. Specific primers were designed for human A3AR, which match to two separate exons, according to genomic sequences (from GenBank). Sequences for the sense and antisense A3AR primers are: 5′tccatcatgtccttgctg3′ (SEQ ID NO: 1) and 5′gcacatgacaaccaggg3′ (SEQ ID NO.: 2). In the experiments analyzing estrogen receptor a (ERα) mRNA, semi-quantitative PCR reactions were carried out with 23 cycles for ERα primers and 19 cycles for GAPDH primers (used as a control). The cycle numbers were tested in previous experiments not to produce saturation effects. […]

[2] = system: cyclin levels in HeLa cells; assay: Western blot of cyclins in HeLa cells; settings: data not shown
Procedure: Western Blot Analysis: Cells were washed three times in cold 1×PBS, and collected by scraping on ice. Western blot analysis was performed as we described before with the chemiluminescence method (41). Antibodies used in this study were: ERα (NeoMarkers, Ab-15), Cyclin A (Santa Cruz Biotech, H-432), Cyclin B1 (Santa Cruz Biotech, H-433), Cyclin E (Upstate Biotech, HE-12), p27 (Santa Cruz Biotech, F-8). ERα antibody was used at 1:100 dilutions. Cyclin A, cyclin B1 and p27 antibodies were used at 1:500 dilutions. Cyclin E antibody was used at 1:1000 dilutions.

MCF-7 cells = assay: Anchorage-dependent growth assay (viable cell count, Trypan Blue); settings: MCF-7
Procedure: Anchorage-dependent growth assay: Cells were plated into 6-well plates and grown overnight before treatments. The seeding concentration of MCF-7 cells was 2×10^5/well, which was determined during preliminary experiments as not allowing the cells to reach confluency within 3 days. Cells were treated either with vehicle or ligands, as indicated. Cells were detached by incubation with trypsin (Invitrogen, Carlsbad, Calif.) and counted with a hemacytometer before or after treatment.

CNC(=O)[C@H]1O[C@@H](n2cnc3c(NCc4cccc(I)c4)ncnc32)[C@H](O)[C@@H]1O [IB-MECA, N^6-(3-iodobenzyl)adenosine-5′-N-methyluronamide]
Cell counts after treatment compared to day 0, in words (T47D cells): affected more severely
Drop of ERE promoter activity [1]: more than 5 fold
pS2 mRNA level (pS2 mRNA): reduced
Cyclin levels [2]: no significant change
Cell counts after treatment compared to day 0, in words (MCF-7 cells; 100 μM, three days, trypan blue negative cells): decreased only mildly; also recorded: did not show much change in the number of viable cells
Cell Growth (MCF-7 cells; 2 days of treatment, compounds at 100 μM, except adenosine (500 μM) and inosine (1 mM), normalized to vehicle control (set to 1), negative = decrease vs count before treatment, average ± SD, three experiments): −0.19 ± 0.06
